Numbered stars: 1 amine (or outer) side, 2 acyl side, 3 side chain; on linkers, the order of the positions; unused ones are H or OH. Bridge positions count the residues as written; N and C are the ends. Square brackets hold non-standard residues; d marks the D form. Primed or numbered codes have the meaning given here. * marks the point of attachment. B5 = bis-pentenylglycine, C=CCCCC(CCCC=C)(N[*:1])C(=O)[*:2]; R8 = C=CCCCCCC[C@@](C)(N)C(=O)O; S8 = C=CCCCCCC[C@](C)(N)C(=O)O; αMeL = CC(C)C[C@](C)(N)C(=O)O; Octanoyl′ = not defined here; S5 = C=CCCC[C@](C)(N)C(=O)O; Myristyl = CCCCCCCCCCCCCC*; Octanoyl = CCCCCCCC(=O)*
Legend:
[1] = system: ApoE-ko mice; experiment: Single dose study in ApoE-ko mice, plasma total cholesterol and triglycerides; format: in vivo; conditions: for lowering of plasma total cholesterol: ApoE-KO mice, 2.5 μmol/kg i.v. single dose, FIG. 20A; for plasma total cholesterol / plasma triglyceride levels: ApoE-ko mice, 4.6 mg/kg (2.5 μmol/kg) intravenous; for plasma total cholesterol: FIG. 10A; for plasma triglyceride levels: effect transient, FIG. 10B
Experimental: The effect of OctaC-E139-150 and OctaN-E139-150 peptides were tested in ApoE-ko mice. The mice were kept on a normal chow diet. At 3.5 months of age, 15 mice were divided into three groups of five mice each, as follows: 1) control group; 2) OctaC-E139-150 peptide group; and 3) OctaN-E139-150 peptide group. Peptides were dissolved in PBS at 1.5 mg/ml (810 μM OctaC-E139-150; 849 μM OctaN-E139-150). Mice were weighed one day before peptide administration and peptide amount was calculated for each mouse to receive 4.6 mg/kg peptide (2.5 μmol/kg). The calculated amount of 1.5 mg/ml peptide was placed in a syringe and normalized with PBS to 80 μl. The mice received intravenous injection of PBS (control) or the peptide. Blood samples were collected immediately prior to injection, and 1 hour, 3 hours, and 6 hours after injection. Blood was centrifuged at 3000 rpm at 4° C. for 20 minutes and plasma was separated (20-30 μl) and stored at 4° C. Plasma triglycerides and total cholesterol were measured the next day using L-type triglyceride M assay and The cholesterol E kit (Wako, FUJIFILM Medical Systems USA).
MyrN-E139-150 and OctaN-E139-150 peptides were tested in a single dose ApoE-KO mouse study. ApoE-KO mice (n=9) were divided into 3 groups: control group (PBS), n=3; MyrN-E139-150 (2.5 μmol/kg; 4.6 mg/kg), n=3; and OctaN-E139-150 (2.5 μmol/kg; 4.4 mg/kg), n=3. Mice were fed normal chow diet for the whole study. Peptides were injected i.v. and blood samples were collected at pre-injection and 1 h, 3 h, and 6 h after the injection of the peptides. Measurement of plasma total cholesterol and triglycerides was as described in Example 2. The peptides lowered plasma total cholesterol (FIG. 20A; 37% at 3 h; 29% at 6 h) and triglycerides (FIG. 20B; 30-50% at 1 h).

[2] = system: WT HepG2 cells; experiment: Effect of heparin on peptide mediated LDL uptake in WT HepG2 cells; format: cell-based; conditions: 10 μM peptide, heparin 10 USP/ml, 1 h at 37° C., FIG. 19
Experimental: Fluorescently labeled LDL (Alexa Fluor 568-NHS ester) at 50 μg/ml final protein concentration was preincubated with or without 10 μM MyrN-E141-150-amL peptide for 30 min at 37° C. (solutions made in DMEM (no phenol red, no serum) with 0.1% BSA). To some LDL and some LDL/peptide samples, heparin was added (10 USP/ml final conc.; heparin, sodium injection from porcine intestinal mucosa (Fresenius Kabi USA, Lake Zurich, IL)). Mixtures were preincubated for additional 5 min at 37° C. Next, WT HepG2 cells were incubated with the LDL/peptide/heparin mixtures for 1 h at 37° C. Lipoprotein uptake was assessed by flow cytometry. Heparin diminished the effect of MyrN-E141-150-amL peptide on LDL uptake in the wild type HepG2 cells (FIG. 19).

[3] = system: LDLR-KO mice; experiment: Single dose LDLR-KO mouse study, plasma total cholesterol; format: in vivo; conditions: 2.5 μmol/kg (4.6 mg/kg) i.v. single dose, after 3 h and 6 h of injection, FIG. 21A
Experimental: MyrN-E141-150-amL and OctaN-E141-150 were tested in a single dose LDLR-KO mouse study. LDLR-KO mice (n=9) were divided into 3 groups: control group (PBS), n=3; MyrN-E141-150-amL (2.5 μmol/kg; 4.6 mg/kg), n=3; and OctaN-E141-150 (2.5 μmol/kg; 4.4 mg/kg), n=3. Mice were fed normal chow diet for the whole study. Peptides were injected i.v. and blood samples were collected at pre-injection and 1 h, 3 h, 6 h and 24 h after the injection of the peptides. Measurement of plasma total cholesterol was as described in Example 2. MyrN-E141-150-amL lowered plasma total cholesterol around 15-30% after 3 h and 6 h of injection (FIG. 21A).

[4] = system: WT HepG2 cells; experiment: LDL uptake by heparinase treated WT HepG2 cells; format: cell-based; conditions: Heparinase I, II, and III pretreatment
Experimental: (§1) Involvement of heparan sulfate proteoglycans (HSPGs) in peptide-mediated LDL uptake was tested. WT HepG2 cell were pretreated with a mixture of Heparinase I, II, and III (IBEX Pharmaceuticals) to degrade heparan sulfate chains on the cell surface. Next, LDL uptake studies were performed with OctaC-E139-150-S and MyrN-E141-150-amL peptides (FIGS. 18A-18C). […] Similarly, heparinase treatment attenuated MyrN-E141-150-amL mediated LDL uptake in WT HepG2 cells (FIG. 18C).

[5] = system: Mouse Hepatitis Virus (MHV); experiment: MHV-GFP replication in HeLa mCC1a cells; format: cell-based; conditions: 15 μM peptide, 16 hours, FIG. 11
Excerpt: Mouse Hepatitis Virus (MHV) is a beta coronavirus that infects mice cells via the murine CEACAM1 receptor (mCC1a receptor). HeLa (human epithelium) cells that have been modified to express the mCC1a receptor can be infected with MHV. The recombinant MHV used in this experiment has been modified such that it contains additional nucleocapsid (N) protein segment which is N-terminally fused with a green fluorescence protein tag (GFP) (see Verheije et al., J. Virol. 84:11575-11579, 2010). When cells are infected with MHV, the MHV replicates generating more GFP and increasing the fluorescent signal.
HeLa mCC1a cells were cultured in a 96 well plate. Cells were infected for 2 hours with MHV-GFP at 37° C. Viral stock solution was diluted 40-fold. Stock was prepared by infecting HeLa cells with MHV-GFP for 3 days and by collecting cellular media. Cells were washed with PBS and treated with media (DMEM plus 10% FBS, 100 IU/ml penicillin G, […] streptomycin, 0.5 mg/ml G418) containing ApoE peptides (15 μM) or media without peptide and incubated for 16 hours at 37° C. Cells were washed with PBS and total GFP fluorescence (ex/em 488/520) in cells was measured on the plate using a fluorescence plate reader.

[6] = system: LDLR-ko HepG2 cells; experiment: LDL uptake by heparinase treated LDLR-KO HepG2 cells; format: cell-based; conditions: heparinase pretreatment, FIG. 18B
Experimental: as §1

[7] = low peptide dose, FIGS. 18A, 18C

| Substance | lowering of plasma total cholesterol ([1]; at 3 h) | lowering of plasma total cholesterol ([1]; at 6 h) | plasma total cholesterol [1] | plasma triglyceride levels [1] | effect of heparinase treatment on peptide mediated LDL uptake [4, 7] | MHV-GFP fluorescence (viral replication) [5] | also measured |
| --- | --- | --- | --- | --- | --- | --- | --- |
| Octanoyl-SH(R8)RKLRKR(S5)LR-NH2 (Octanoyl-SH[R8]RKLRKR[S5]LR-NH2; staple 3-10; SMILES CCCCCCCC(=O)N[C@@H](CO)C(=O)N[C@@H](Cc1c[nH]cn1)C(=O)N[C@]1(C)CCCCCCC=CCCC[C@@](C)(C(=O)N[C@@H](CC(C)C)C(=O)N[C@@H](CCCNC(=N)N)C(N)=O)NC(=O)[C@H](CCCNC(=N)N)NC(=O)[C@H](CCCCN)NC(=O)[C@H](CCCNC(=N)N)NC(=O)[C@H](CC(C)C)NC(=O)[C@H](CCCCN)NC(=O)[C@H](CCCNC(=N)N)NC1=O) [OctaN-E139-150] | 37% | 29% | significantly decreased | significantly decreased |  |  |  |
| Myristyl-(R8)RKLRKR(S5)L(alpha-methyl)R-NH2 (Myristyl-[R8]RKLRKR[S5][αMeL]R-NH2; staple 1-8; SMILES CCCCCCCCCCCCCCN[C@]1(C)CCCCCCC=CCCC[C@@](C)(C(=O)N[C@@](C)(CC(C)C)C(=O)N[C@@H](CCCNC(=N)N)C(N)=O)NC(=O)[C@H](CCCNC(=N)N)NC(=O)[C@H](CCCCN)NC(=O)[C@H](CCCNC(=N)N)NC(=O)[C@H](CC(C)C)NC(=O)[C@H](CCCCN)NC(=O)[C@H](CCCNC(=N)N)NC1=O) [MyrN-E141-150-amL] |  |  |  |  | attenuated |  | effect of heparin on peptide effect on LDL uptake [2]: diminished; lowering of plasma total cholesterol [3]: 15-30% |
| Ac-RVR(S5)ASH(B5)RKLRKR(S8)LR-NH2 (Ac-RVR[S5]ASH[B5]RKLRKR[S8]LR-NH2; staple 8-15, 4-8) [E134-150-Stitch] |  |  |  |  |  | dramatic reductions |  |
| Myristyl-SH(R8)RKLRKR(S5)LR-NH2 (Myristyl-SH[R8]RKLRKR[S5]LR-NH2; staple 3-10; SMILES CCCCCCCCCCCCCCN[C@@H](CO)C(=O)N[C@@H](Cc1c[nH]cn1)C(=O)N[C@]1(C)CCCCCCC=CCCC[C@@](C)(C(=O)N[C@@H](CC(C)C)C(=O)N[C@@H](CCCNC(=N)N)C(N)=O)NC(=O)[C@H](CCCNC(=N)N)NC(=O)[C@H](CCCCN)NC(=O)[C@H](CCCNC(=N)N)NC(=O)[C@H](CC(C)C)NC(=O)[C@H](CCCCN)NC(=O)[C@H](CCCNC(=N)N)NC1=O) [MyrN-E139-150] | 37% | 29% |  |  |  |  |  |
| Ac-SH(R8)RKLRKR(S5)LR-Octanoyl (Ac-SH[R8]RKLRKR[S5]LR-{Octanoyl′}; staple 3-10) [OctaC-E139-150] |  |  | significantly decreased | significantly decreased | diminished low dose peptide effect on LDL uptake | dramatic reductions | effect of heparinase treatment on peptide mediated LDL uptake [6]: showed similar results; effect of heparinase treatment on peptide mediated LDL uptake ([4]; higher peptide concentrations, FIG. 18A): heparinase treatment had a lower effect |

Source: patent US20250304622A1, “SHORT APOLIPOPROTEIN E MIMETIC PEPTIDES AND METHODS OF USE” (The United States of America, as represented by the …, priority 2022, published 2025)
